The text below walks through data of patent US20020155172A1, “Methods and compounds for decreasing cell toxicity or death” (priority 2000, published 2002).

The subject of data set [1] is HeLa cells co-transfected with a luciferase construct together with Q79-GFP. The data set is described as follows: Protein synthesis by luciferase activity in Q79 expressing HeLa cells. The data set is classed as cell-based.
For the next data set, the system named is Q79-GFP aggregates. The data set is described as follows: Decrease of pre-formed Q79-GFP aggregates in vitro. It is filed as biochemical. Particulars: 100 μM each; visually examined. How it is done: Q79-GFP was expressed and purified from bacteria using standard molecular biology techniques. These fusion proteins form aggregates in vitro which can be viewed under an inverted fluorescence microscope. The Q79-GFP aggregates were administered Congo red (1 nM to 100 μM) and the ability of Congo red to decrease the aggregate was visually assessed.
This assay was also carried out on Q79-GFP aggregates that were administered compounds known to disrupt other types of aggregates, for example, beta-amyloid fibril aggregates. The Q79-GFP aggregates were administered Iota-carrageenan, dextran, minocycline, rolitetracycline, or Chrysamine G Congo red (100 μM each), and visually examined for the effect of each compound on disruption of the aggregate, as well as the density and size of the aggregates.

The next data set has as its system cells; primary neurons. The data set is described as follows: Compound toxicity in cells. The data set is classed as cell-based.
In data set [2] the test system is HeLa cells transfected with a Q79-GFP construct. The data set is described as follows: Polyglutamine-induced cell death in HeLa cells. To be noted: Q79-GFP, compound added six hours after transfection, 1 nM to 100 μM (FIG. 4A: 100 μM), seventy-two hours post-transfection. The data set is classed as cell-based. How it is done: FIG. 4A is two graphs showing the effect of Congo red, tetracyclines, and sulfated polyanions on polyglutamine-induced cell death in, each graph representing a separate experiment. HeLa cells transfected with a Q79-GFP construct were treated with 100 μM of minocycline (mino), Chrysamine G (CG), Rolitetracycline (Ro), iota carrageenan (iota), dextran 500 (dextran), or Congo red (CR), six hours after transfection. The amount of cell death was determined 48 hours after transfection by morphological criteria as previously described (Sanchez et al., supra).
In a cell expressing Q79-GFP polypeptides, polyglutamine aggregates are formed and the cell dies by apoptosis (Sanchez, supra). Cell viability was determined by morphological criteria characteristic of apoptosis, including cell blebbing, shrinking. Total cell lysates and tissue homogenates were obtained using Buffer A: 1% triton in PBS, containing 10 μg/ml DNAse and protease inhibitors; leupeptin 20 μg/ml, aprotinin 20 u/ml, and PMSF 100 mM. The proteins were separated by 12% SDS/PAGE and transferred to PVDF Immobilon membrane (Millipore, Inc). Antibodies used included rabbit polyclonal antibodies; EM48 (Li et al., Mol. Neurobiol. 20:111-124, 2000) anti-heat shock proteins 40 and 70 (Stressgen, Co.), and rat monoclonal anti-caspase-8 antibody.
These effects were determined by visual inspection of GFP-positive cells under an inverted fluorescence microscope. In addition, the occurrence of apoptosis of these transfected cell samples was confirmed by staining the cells with trypan blue, propidium iodide, or Hoescht 33342 to examine the cellular or nuclear morphology.
Compounds that disrupt other types of aggregates, for example, amyloid fibril aggregates were tested for their ability to disrupt pre-formed polyglutamine aggregates. HeLa Cells were transfected with a Q79-GFP construct. Six hours later, Iota-carrageenan, dextran, minocycline, rolitetracycline, and Chrysamine G (1 nM to 100 μM) were each incubated with the cells. Seventy-two hours post-transfection, the cells were evaluated for the occurrence of cell death, by visual inspection under an inverted fluorescence microscope.

In a further data set the test system is GST-Q81 beads. The data set is described as follows: Chemical absorption assay, Q81. Particulars: 25 μM of each (FIG. 6B). It is filed as binding. How it is done: FIG. 6B is a graph of the percent of binding of various compounds to amyloid-like Q81 aggregates measured using a chemical absorption assay. The anti-amyloid compounds minocycline, Chrysamine G, Rolitetracycline, iota carrageenan, dextran 500 (dextran), or Congo red (25 μM of each) were pre-absorbed with Q81 GST recombinant protein and the percentage absorbance of the compound remaining in the supernatant after absorption with GST-Q81 beads is plotted on the y-axis.
To determine if Congo red and its derivatives directly bind to expanded polyglutamine aggregates, we designed a chemical absorption assay. This assay measures the remaining Congo red in the supernatant after incubating the supernatant with GST-tagged polyglutamine beads, and removing the GST-polyglutamine beads by centrifugation. This assay was carried out as follows. Recombinant protein GST-Q19, GST-Q62, and GST-Q81 (containing 19, 62, and 81 polyglutamines, respectively) was purified from E. coli by glutathione beads. After several washes with PBS containing protease inhibitors, the beads were allowed to settle to the bottom of the tube at 24° C. for 10 minutes. The polyglutamine-bound beads were aliquoted and diluted with two volumes of 10 μg/ml of Congo red in PBS. The beads were mixed and centrifuged at 15,000 rpm for 2 minutes and the supernatant was removed and diluted 1:100. The percentage absorbance of the compound remaining in the supernatant after absorption with the GST-polyQ beads was then detected. In addition, Congo red- or PBS-only treated polyglutamine polypeptide bead pellets were washed three times with 100 volumes of PBS and then the protein was separated by 12% polyacrylamide gels and immunoblotted as mentioned above. Some blots were used for immunostaining with anti-polyglutamine antibody (EM48). Other blots were left unstained to visualize the red color of Congo red that entered the gel along with the polyglutamine protein.
Binding of the above-identified compounds to amyloid-like Q81 aggregates was also assessed by a chemical absorption assay. The compounds indicated in FIG. 19 (25 μM of each) were pre-absorbed with a Q81 GST recombinant protein and the percentage absorbance of the compound remaining in the supernatant after absorption with GST-Q81 beads was then detected.

Data set [3] deals with non-transfected HeLa cells. The data set is described as follows: Total cellular protein degradation. It is filed as cell-based. To be noted: Congo red 100 μM, ZVAD 100 μM, MG132 10 μM; H3-tyrosine release, 0 to 180 minutes. How it is done: FIG. 8C is a graph of the effect of effect of Congo red, ZVAD, or the proteosome inhibitor MG132 on total cellular protein degradation in non-transfected HeLa cells.
To rule out the possibility that Congo red may have an effect on protein degradation in general, we tested the effect of Congo red on proteosome degradation. Rates of total cellular protein degradation experiments, from cells seeded in 12 well dishes at 2×10^4, treated with Congo red (100 μM), ZVAD (100 μM), or the proteosome inhibitor MG132 (10 μM) and labeled with 5 μCi/ml of H^3-tyrosine for 1 hour. One hundred microliter culture medium aliquots were collected at 0, 30, 60, 90, 120, and 180 minute time points, and the levels of H^3-tyrosine were determined using an LS6000 scintillation counter (Beckman, Co).

[4] abbreviates: Q79 expressing HeLa cells, various concentrations.

Counter-ions that a name gives are not always drawn. Like-named read-outs stand apart in the source and are kept apart here. Peptide text beside a SMILES is read from it. * marks the point of attachment. Cbz = O=C(OCc1ccccc1)*

`N[C@@H]1CONC1=O` [D-cycloserine]: in data set [1] (setting [4]), the “protection against inhibition of protein synthesis (luciferase activity)” value (“protection against inhibition” for short) is on record as “found to protect against inhibition of protein synthesis”.
Regarding `Nc1ccc(/N=N/c2ccccc2)c(N)n1` [phenazopyridine], the “protection against inhibition” value in data set [1] (setting [4]) is “found to protect against inhibition of protein synthesis”.
On the same count and under the same terms, to `COc1ccc2cc(CCC(C)=O)ccc2c1` [nabumetone] belongs “found to protect against inhibition of protein synthesis”.
With `COc1cccc2c1C(=O)c1c(O)c3c(c(O)c1C2=O)C[C@@](O)(C(C)=O)C[C@@H]3O[C@H]1C[C@H](N)[C@H](O)[C@H](C)O1` [daunomycin, reference compound], in the data set on Q79-GFP aggregates, the “dissolution or disruption of pre-formed expanded polyglutamine repeat aggregates” value (“dissolution or disruption” below) is “dissolution or disruption of pre-formed expanded polyglutamine repeat aggregates were detected”. Further, in the data set with cells; primary neurons, the “compound toxicity in cells” value is reported as “highly toxic to cells”.
For the molecule `CN(C)[C@@H]1C(O)=C(C(=O)NCN2CCCC2)C(=O)[C@@]2(O)C(O)=C3C(=O)c4c(O)cccc4[C@@](C)(O)[C@H]3C[C@@H]12` [rolitetracycline], the “Polyglutamine-induced Cell Death” value in data set [2] was “+++ (Each + indicates approximately 20% cell death.)”.
Turning to `CC(C)C[C@H]1C(=O)N2CCC[C@H]2[C@]2(O)O[C@](NC(=O)[C@@H]3C=C4c5cccc6[nH]c(Br)c(c56)C[C@H]4N(C)C3)(C(C)C)C(=O)N12` [bromocriptine mesylate], the “protection against inhibition” value in data set [1] ([…], various concentrations) was “found to protect against inhibition of protein synthesis”.
The same measure, in the same setting: the same measure for R-(−)-deprenyl hydrochloride: “found to protect against inhibition of protein synthesis”.
With `C[C@H]1C[C@@H]2[C@H]([C@@H](O)C[C@@]3(C)[C@H]2CC[C@]3(O)C(=O)COC(=O)CCC(=O)O)[C@@]2(C)C=CC(=O)C=C12` [6a-methylprednisolone 21-hemisuccinate], in data set [1] (setting [4]), the “protection against inhibition” value is “found to protect against inhibition of protein synthesis”.
Regarding iota-carrageenan, the “dissolution or disruption” value in the data set on Q79-GFP aggregates was “detected only after Congo red addition and daunomycin addition”. For the same molecule, in the data set on GST-Q81 beads, the “binding to 81-repeat polyglutamine polypeptide” value (shortened to “binding”) is on record as “binds to expanded polyglutamines”. Moreover, the “Polyglutamine-induced Cell Death” value in data set [2] is given as “+++ (Each + indicates approximately 20% cell death.)”.
For neostigmine methyl ether, the “protection against inhibition” value in data set [1] ([…], various concentrations) is reported as “found to protect against inhibition of protein synthesis”.
As for `O=C(CCCN1CCC(O)(c2ccc(Cl)cc2)CC1)c1ccc(F)cc1` [haloperidol], the “protection against inhibition” value in data set [1] (setting [4]) is given as “found to protect against inhibition of protein synthesis”.
Regarding `CC(C)C[C@@H](C=O)NC(=O)[C@H](CC(C)C)NC(=O)[C@H](CC(C)C)NC(=O)OCc1ccccc1` [MG132] (Cbz-Leu-Leu-Leu-aldehyde), the general protein degradation result in data set [3] was “inhibited”.
On to `CCCCCCCCC(=O)NCc1ccc(O)c(OC)c1` [N-vanillylnonanmide], for which the “protection against inhibition” value in data set [1] is listed as “found to protect against inhibition of protein synthesis”.
For the molecule `O=C(O)c1cc(/N=N/c2ccc(-c3ccc(/N=N/c4ccc(O)c(C(=O)O)c4)cc3)cc2)ccc1O` [Chrysamine G], the “dissolution or disruption” value in the data set with Q79-GFP aggregates is “detected only after Congo red addition and daunomycin addition”. Also, the “binding” value in the data set on GST-Q81 beads is listed as “binds to expanded polyglutamines”. Moreover, in data set [2], the “Polyglutamine-induced Cell Death” value is given as “+++ (Each + indicates approximately 20% cell death.)”.
On to `C[C@]12CCC(=O)C=C1CC[C@@H]1[C@@H]2[C@@H](O)C[C@@]2(C)[C@H]1CC[C@]2(O)C(=O)CO` [hydrocortisone], for which, in data set [1] (setting [4]), the “protection against inhibition” value is given as “found to protect against inhibition of protein synthesis”.
With `CCC1(c2ccccc2)C(=O)NCNC1=O` [primidone], in data set [1] (setting [4]), the “protection against inhibition” value was “found to protect against inhibition of protein synthesis”.
For the molecule `CN(C)c1ccc(O)c2c1C[C@H]1C[C@H]3[C@H](N(C)C)C(O)=C(C(N)=O)C(=O)[C@@]3(O)C(O)=C1C2=O` [minocycline], the “Polyglutamine-induced Cell Death” value in data set [2] is listed as “+++ (Each + indicates approximately 20% cell death.)”.
In the case of `[O]=[Mg]` [magnesium oxide], in data set [1] ([…], various concentrations), the “protection against inhibition” value is recorded as “found to protect against inhibition of protein synthesis”.
On to dextran, for which the “dissolution or disruption” value with Q79-GFP aggregates was “detected only after Congo red addition and daunomycin addition”. The “binding” value with GST-Q81 beads was “binds to expanded polyglutamines”. Moreover, the “Polyglutamine-induced Cell Death” value in data set [2] is given as “+++ (Each + indicates approximately 20% cell death.)”.
Regarding `Cn1cnc([N+](=O)[O-])c1Sc1ncnc2nc[nH]c12` [azathioprine], in data set [1] (setting [4]), the “protection against inhibition” value is recorded as “found to protect against inhibition of protein synthesis”.
As to `C[C@H]1O[C@@H](O[C@H]2[C@@H](O)C[C@H](O[C@H]3[C@@H](O)C[C@H](O[C@H]4CC[C@@]5(C)[C@H](CC[C@@H]6[C@@H]5C[C@@H](O)[C@]5(C)[C@@H](C7=CC(=O)OC7)CC[C@]65O)C4)O[C@@H]3C)O[C@@H]2C)C[C@H](O)[C@@H]1O` [digoxin], the “protection against inhibition” value in data set [1] ([…], various concentrations) was “found to protect against inhibition of protein synthesis”.
